Values belong to the compound of their own block, whether it stands above or below them.
How the values were obtained:
[1] = test system: porcine brain microvascular endothelial cells (PBEC); assay: in vitro
Text: (§1) Monolayers of primary cultures of porcine brain microvascular endothelial cells (PBEC) represent an in vitro model of the blood-brain barrier. They form monolayers under standard culture conditions both on various collagen coated solid substrates and permeable filters of polycarbonate. The PBEC-monolayer grows on the filter membranes in polarized manner with the apical side representing the capillary lumen but the basolateral side corresponding to brain tissue. As soon as the cells become confluent and build up a tight layer after 7 days PBEC are ready to be used for transport experiments. Due to the formation of functional tight junctions, they show a high transendothelial electrical resistance (TEER) and a tight barrier is created with biological properties similar to the cerebral capillary endothelium
(§2) The PBEC cells were cultivated in M199, which was supplemented with 10% OS, 0.7 mM L^−1 glutamine, 10,000 U·mL^−1 penicillin/streptomycin and 50·μg mL^−1 gentamicin at 37° C., 5% CO2 and saturated humidity. The cells were subcultivated after being detached with trypsin-EDTA solution and sown on Transwell(r) filter inserts (Costar®, Wiesbaden, Germany). The filters consist of polycarbonate with a surface of 1.13 cm2 and a pore diameter of 0.4 μm.
(§3) The growth of the PBEC into confluent, differentiated monolayers on Transwell® filter inserts was verified by measurements of the TEER. […] Fluorescein passes the monolayer paracellularly, whereas propranolol is transported transcellularly. The transport studies were carried out directly on the Transwell® plates. The culture medium M199 in the apical and the basolateral compartment was replaced by serum free medium DME/Ham's F12 supplemented as described for M199 and with 0.2 μg·mL^−1 hydrocortisone one day prior to the experiment. All transport experiments involving cell-cultures were carried out as triplicates. For application of substances on the apical side half of the medium of aspirated, mixed with appropriate stock solution of the substance to be investigated and replaced onto the filter. For qualification of transcellular transport by propranolol, KRB replaced the DME/Ham's F12 as transport buffer. For transport across cell free filter inserts, the complete medium in the apical compartment was removed, mixed with stock solution and replaced into the donor compartment. […] Propranolol was dissolved in KRB (pH 7.4). Samples were collected at 15′, 30′, 45′, 60′, and 90′ from the acceptor, at 0′ and 90′ from the donor compartment and the sample volume was replaced by fresh transport buffer. Prior to the experiment and after the final sampling, the TEER of the monolayers was measured.
(§4) The apparent permeability coefficient (Papp, [cm·s^−1]) was calculated according to equation 1, where dQ/dt is the permeability rate (steady state transport rate, [μg·s^−1]) obtained from the profile of the transported amount of the substrate against the time. A (1.13 cm^2) is the surface of the exposed cell monolayer, m0 the original mass [μg] of the marker substance in the donor compartment (VDonor 0.5 mL). The effective barrier function of the cell-layer is calculated from the apparent permeation coefficient and the permeation coefficient of the cell-free filter according to equation 2. In case that Papp is of higher magnitude than Pfilter, negative permeability coefficients would be calculated. Negative values for Peff are unsensical, thus an unhindered penetration of the cell-layer is to be drawn as conclusion. [formula]
(§5) In order to find an appropriate concentration affecting the permeation across the BBB, four different concentrations of hexyldiglycerol (HexylG2) were checked for their influence on fluorescein permeation and transendothelial electrical resistance.

in vitro = settings: pig, permeability coefficient for fluorescein
Text: as §1, §2, §3, §4, §5

[2] = test system: porcine brain microvascular endothelial cells (PBEC); assay: Transendothelial electrical resistance (TEER) of PBEC monolayers; assay type: cell-based
Method: […]. Propranolol was dissolved in KRB (pH 7.4).
Since a more distinct effect was expected from in vivo findings, a concentration of 75 mM HexylG2 was selected to be tested with further impermeable markers.

- Peff, permeability coefficient of paracellular-transport marker ([1]; pig, 90 min): 0.96 ×10⁻⁶ cm/s
Compound: OCC(O)CO [^14C-glycerol, glycerol, reference compound]

- Papp A→B at 90 min (in vitro; Papp): 0.28 ×10⁻⁶ cm/s
- Papp A→B at 90 min (in vitro; Peff): 0.29 ×10⁻⁶ cm/s
Compound: O=C1OC2(c3ccc(O)cc3Oc3cc(O)ccc32)c2ccccc21 [fluorescein, reference compound]

Compound: hexyldiglycerol [HexylG2]
- effect on the tightness of the model barrier (fluorescein permeation and TEER) ([1]; 0.1 mM, 1 mM and 10 mM of HexylG2): no effect
- enhancement of the penetration (permeability) of fluorescein ([1]; 50 mM HexylG2 versus w/o): about twofold
- monolayer permeability towards glucose, inulin and glycerol ([1]; treatment of PBEC monolayers, Example 4): significantly increased
- change in TEER ([2]; 50 mM HexylG2 (Table 1 experiment)): decrease in TEER
- change in TEER ([2]; 75 mM HexylG2 (Table 2 experiment)): complete loss of TEER
